According to ChEMBL document CHEMBL5104232, “Pyrazolines as potential anti-Alzheimer's agents: DFT, molecular docking, enzyme inhibition and pharmacokinetic studies” (RSC Med Chem, 2022):
pIC50: −log10 of the molar value.

Columns and labels:
[1] = Apparent permeability of compound across gastrointestinal tract mimic in PBS buffer incubated for 5 hrs by PAMPA assay based HPLC analysis; format: ADME
[2] = Apparent permeability of compound across gastrointestinal tract mimic in PBS buffer as membrane retention incubated for 5 hrs by PAMPA assay based HPLC analysis; format: ADME
Acetylcholinesterase = Acetylcholinesterase (Homo sapiens, UniProt P22303)
Sequence of Acetylcholinesterase (P22303 whole entry): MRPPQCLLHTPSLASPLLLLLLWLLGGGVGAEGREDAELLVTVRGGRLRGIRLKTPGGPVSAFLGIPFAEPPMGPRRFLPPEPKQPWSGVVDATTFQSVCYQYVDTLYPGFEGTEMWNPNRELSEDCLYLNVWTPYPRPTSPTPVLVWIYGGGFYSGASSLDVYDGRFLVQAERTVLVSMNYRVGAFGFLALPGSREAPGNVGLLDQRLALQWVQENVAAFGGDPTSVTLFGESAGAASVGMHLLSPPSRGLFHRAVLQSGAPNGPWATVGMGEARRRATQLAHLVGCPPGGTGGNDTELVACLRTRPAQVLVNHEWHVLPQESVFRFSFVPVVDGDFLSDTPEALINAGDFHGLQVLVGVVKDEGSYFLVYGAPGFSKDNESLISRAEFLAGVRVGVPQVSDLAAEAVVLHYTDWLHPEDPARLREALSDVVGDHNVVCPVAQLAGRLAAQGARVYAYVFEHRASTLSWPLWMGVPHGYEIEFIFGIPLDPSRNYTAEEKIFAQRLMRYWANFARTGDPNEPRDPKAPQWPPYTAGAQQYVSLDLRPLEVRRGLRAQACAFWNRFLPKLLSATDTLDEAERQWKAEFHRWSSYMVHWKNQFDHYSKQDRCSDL
Description: Inhibition of human acetylcholinesterase using acetylthiocholine iodide as substrate incubated for 15 mins by Ellman's method

Row | SMILES | Papp at 5 h [1] | Activity [2] | pIC50 (Acetylcholinesterase)
1 | COc1ccc(C2CC(c3ccc(-c4ccccc4)cc3)=NN2C(C)=O)cc1OC (centres undefined) | 9.02 ×10⁻⁶ cm/s | 9.2% | 2.85
2 | CC(=O)N1N=C(c2ccc(-c3ccccc3)cc2)CC1c1ccccc1 (centres undefined) | 9.15 ×10⁻⁶ cm/s | 30.7% | 2.88
3 | CC(=O)N1N=C(c2ccc(-c3ccccc3)cc2)CC1c1ccc(C(=O)O)cc1 (centres undefined) | 2.13 ×10⁻⁶ cm/s | 15% | 2.81
4 | CC(=O)N1N=C(c2ccc(-c3ccccc3)cc2)CC1c1cccc([N+](=O)[O-])c1 (centres undefined) | 9.42 ×10⁻⁶ cm/s | 27.7% | 2.99
5 | CC(=O)N1N=C(c2ccc(Br)cc2)CC1c1ccc(-c2ccccc2)cc1 (centres undefined) | 4.9 ×10⁻⁶ cm/s | 49% | 6.04
6 | CC(=O)N1N=C(c2ccc(-c3ccccc3)cc2)CC1c1ccccc1[N+](=O)[O-] (centres undefined) | 6.9 ×10⁻⁶ cm/s | 47.6% | 6.19
7 | CC(=O)N1N=C(c2ccc(-c3ccccc3)cc2)CC1c1ccc([N+](=O)[O-])cc1 (centres undefined) | 7.85 ×10⁻⁶ cm/s | 32.6% | 2.81
8 | COc1ccc(C2=NN(C(C)=O)C(c3ccc(-c4ccccc4)cc3)C2)c(OC)c1 (centres undefined) | 1 ×10⁻⁶ cm/s | 18.4% | 2.95
9 | COc1cc(C2=NN(C(C)=O)C(c3ccc(-c4ccccc4)cc3)C2)cc(OC)c1OC (centres undefined) | 7.89 ×10⁻⁶ cm/s | 9.5% | 2.71
10 | CC(=O)N1N=C(c2ccc3c(c2)OCO3)CC1c1ccc(-c2ccccc2)cc1 (centres undefined) | 8.44 ×10⁻⁶ cm/s | 17% | 6.04
11 | CC(=O)N1N=C(c2cccc3ccccc23)CC1c1ccc(-c2ccccc2)cc1 (centres undefined) | 5.47 ×10⁻⁶ cm/s | 35.8% | 2.99
12 | CC(=O)N1N=C(c2ccc3ccccc3c2)CC1c1ccc(-c2ccccc2)cc1 (centres undefined) | 4.43 ×10⁻⁶ cm/s | 56.9% | 7.17
13 | CC(=O)N1N=C(c2ccc(-c3ccccc3)cc2)CC1c1ccc2c(c1)OCO2 (centres undefined) | 8.75 ×10⁻⁶ cm/s | 33.7% | 6.01
14 | CC(=O)N1N=C(c2ccc(C)cc2)CC1c1ccc(-c2ccccc2)cc1 (centres undefined) | 4.27 ×10⁻⁶ cm/s | 44.3% | 6.07
15 | CC(=O)N1N=C(c2ccccc2[N+](=O)[O-])CC1c1ccc(-c2ccccc2)cc1 (centres undefined) | 1.22 ×10⁻⁶ cm/s | 6.6% | 7.28
16 | COc1ccc(OC)c(C2=NN(C(C)=O)C(c3ccc(-c4ccccc4)cc3)C2)c1 (centres undefined) | 6.87 ×10⁻⁶ cm/s | 36.2% | 2.77
17 | CC(=O)N1N=C(c2ccc(-c3ccccc3)cc2)CC1c1ccc2ccccc2c1 (centres undefined) | 3.36 ×10⁻⁶ cm/s | 59.7% | 6.10
18 | COc1ccc(OC)c(C2CC(c3ccc(-c4ccccc4)cc3)=NN2C(C)=O)c1 (centres undefined) | 6.94 ×10⁻⁶ cm/s | 38.3% | 2.85
